What was measured:
[1] = test system: NCI-H1417 cells; experiment: Cell growth suppression test (CellTiter-Glo Luminescent Cell Viability Assay, 10 days treatment); assay type: cell-based; conditions: Homo sapiens, 240 h, treated for 10 days
Description: Cell growth suppression effects of the synthesized compounds on NCI-H1417 cells were identified. The cells were treated with the synthesized compounds for 10 days. Then, in order to test the cell growth suppression, CellTiter-Glo Luminescent Cell Viability Assay (available from Promega, USA) was used. This test is to measure emission signals proportional to the number of ATPs based on a fixed amount of ATPs, which represents the presence of metabolically active cells, thereby determining the number of viable cells. The results are expressed as a Gl50 value. As for a control, GSK2879552 (available from GlaxoSmithKline USA) was used.

[2] = molecular target: LSD1 (Homo sapiens (Human), UniProt O60341); experiment: Biochemical analysis of LSD1 histone demethylase inhibition (BPS Bioscience LSD1 fluorescence analysis kit, HRP/Amplex Red); conditions: demethylation of Lys4 of histone H3
Description: The biochemical inhibition activity of the synthesized compounds on LSD1 was measured. The activity measurement was performed using LSD1 fluorescence analysis kit (available from BPS Bioscience Co., Ltd., Catalog No: 50106). This analysis kit is designed to measure activity of LSD1 enzyme. H2O2 generated upon demethylation of Lys4 moiety of histone H3 by LSD1 is reacted with HRP/Amplex Red reagent to form fluorescent Resorufin, which is measured by this kit, thereby confirming demethylation.
The results are expressed as an IC50 value. As for a control, GSK2879552 (available from GlaxoSmithKline USA) was used.

GI50 [1] [nM]	IC50 [2] [nM]	SMILES
26	29	N#Cc1ccc(-c2nc3c(N4CCC[C@@H](N)C4)ccnc3n2-c2ccc(N3CCC(F)(F)C3)cc2F)cc1F [Example 26, (R)-4-(7-(3-aminopiperidine-1-yl)-3-(4-(3,3-difluoropyrrolidine-1-yl)-2-fluorophenyl)-3H-imidazo[4,5-b]pyridine-2-yl)-2-fluorobenzonitrile]
64	37	N#Cc1ccc(-c2nc3c(N4CCC[C@@H](N)C4)ccnc3n2-c2ccc(N3CCCC3)cc2F)cc1F [Example 27, (R)-4-(7-(3-aminopiperidine-1-yl)-3-(2-fluoro-4-(pyrrolidine-1-yl)phenyl)-3H-imidazo[4,5-b]pyridine-2-yl)-2-fluorobenzonitrile]
37	40	Cc1ccc(-n2c(-c3ccc(C#N)c(F)c3)nc3c(N4CCC[C@@H](N)C4)ccnc32)cc1 [Example 28, (R)-4-(7-(3-aminopiperidine-1-yl)-3-(p-tolyl)-3H-imidazo[4,5-b]pyridine-2-yl)-2-fluorobenzonitrile]
32	30	COC1CN(c2ccc(-n3c(-c4ccc(C#N)c(F)c4)nc4c(N5CCC[C@@H](N)C5)ccnc43)c(F)c2)C1 [Example 31, (R)-4-(7-(3-aminopiperidine-1-yl)-3-(2-fluoro-4-(3-methoxyazetidine-1-yl)phenyl)-3H-imidazo[4,5-b]pyridine-2-yl)-2-fluorobenzonitrile]
46	38	CC(=O)O[C@H]1CCN(c2ccc(-n3c(-c4ccc(C#N)c(F)c4)nc4c(N5CCC[C@@H](N)C5)ccnc43)c(F)c2)C1 [Example 32, (S)-1-(4-(7-((R)-3-aminopiperidine-1-yl)-2-(4-cyano-3-fluorophenyl)-3H-imidazo[4,5-b]pyridine-3-yl)-3-fluorophenyl)pyrrolidine-3-yl acetate]
26	26	N#Cc1ccc(-c2nc3c(N4CCC[C@@H](N)C4)ccnc3n2-c2ccc(N3CC[C@H](Cl)C3)cc2F)cc1F [Example 36, 4-(7-((R)-3-aminopiperidine-1-yl)-3-(4-((S)-3-chloropyrrolidine-1-yl)-2-fluorophenyl)-3H-imidazo[4,5-b]pyridine-2-yl)-2-fluorobenzonitrile]
3.6	25	CCO[C@H]1CCN(c2ccc(-n3c(-c4ccc(C#N)c(F)c4)nc4c(N5CCC[C@@H](N)C5)ccnc43)c(F)c2)C1 [Example 39]
5.3	30	N#Cc1ccc(-c2nc3c(N4CCC[C@@H](N)C4)ccnc3n2-c2ccc(N3CC4COCC4C3)cc2F)cc1F (stereo partly drawn) [Example 49, 4-(7-((R)-3-aminopiperidine-1-yl)-3-(2-fluoro-4-(tetrahydro-1H-furo[3,4-c]pyrrole-5(3H)-yl)phenyl)-3H-imidazo[4,5-b]pyridine-2-yl)-2-fluorobenzonitrile]
32	100	CO[C@H]1CCN(c2ccc(-n3c(-c4ccc(C#N)c(F)c4)nc4c(N5CCC6(CCNC6)CC5)ccnc43)c(F)c2)C1 [Example 60, (S)-2-fluoro-4-(3-(2-fluoro-4-(3-methoxypyrrolidine-1-yl)phenyl)-7-(2,8-diazaspiro[4.5]decane-8-yl)-3H-imidazo[4,5-b]pyridine-2-yl)benzonitrile]
11	38	CO[C@H]1CCN(c2ccc(-n3c(-c4ccc(C#N)c(F)c4)nc4c(N5CCC6CCNC6C5)ccnc43)c(F)c2)C1 (stereo partly drawn) [Example 61, 2-fluoro-4-(3-(2-fluoro-4-((S)-3-methoxypyrrolidine-1-yl)phenyl)-7-(octahydro-6H-pyrrolo[2,3-c]pyridine-6-yl)-3H-imidazo[4,5-b]pyridine-2-yl)benzonitrile]
20	36	CO[C@H]1CCN(c2ccc(-n3c(-c4ccc(C#N)c(F)c4)nc4c(N5CCC[C@H](N)C5)ccnc43)c(F)c2)C1 [Example 62, 4-(7-((S)-3-aminopiperidine-1-yl)-3-(2-fluoro-4-((S)-3-methoxypyrrolidine-1-yl)phenyl)-3H-imidazo[4,5-b]pyridine-2-yl)-2-fluorobenzonitrile]
14	24	CO[C@H]1CCN(c2ccc(-n3c(-c4ccc(C#N)c(F)c4)nc4c(N5CCC(N)C5)ccnc43)c(F)c2)C1 (stereo partly drawn) [Example 64, 4-(7-(3-aminopyrrolidine-1-yl)-3-(2-fluoro-4-((S)-3-methoxypyrrolidine-1-yl)phenyl)-3H-imidazo[4,5-b]pyridine-2-yl)-2-fluorobenzonitrile]
2.7	30	CO[C@H]1CCN(c2ccc(-n3c(-c4ccc(C#N)c(F)c4)nc4c(N5CCCC[C@@H](N)C5)ccnc43)c(F)c2)C1 [Example 67, 4-(7-((R)-3-aminoazepane-1-yl)-3-(2-fluoro-4-((S)-3-methoxypyrrolidine-1-yl)phenyl)-3H-imidazo[4,5-b]pyridine-2-yl)-2-fluorobenzonitrile]
